Measured values reported in patent publication US8722849B2, “Polypeptides” (Novo Nordisk A/S, priority 2011, dated 2014).
Values after ≈ are worked out from the molar mass of the structure shown. Read-outs that look alike come from different tables or passages of the source. Starred links: 1 amine or outer side, 2 acyl side, 3 side chain; linkers in the order of their positions; H or OH if unused. Positions of bridges follow the written chain, without caps; N, C: chain ends. Residues, ends and D or L forms follow the SMILES beside them. *: point of attachment. C20 diacid = O=C(O)CCCCCCCCCCCCCCCCCCC(=O)*; C18 diacid = O=C(O)CCCCCCCCCCCCCCCCC(=O)*; γGlu = O=C(O)[C@H](CCC(=O)[*:2])N[*:1]

Experiments:
[1] = Assay (IV) determination of solubility; type: physicochemical
Method in brief: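 Solubility is measured across pH 3.0–8.0 by mixing a ~500 nmol/ml aqueous polypeptide stock 1:1 with 100 mM glycylglycine or bistrispropane buffers. Samples stand 18 hours at room temperature, then are centrifuged and the soluble concentration is determined by HPLC.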

[2] = molecular target: T1, human amylin receptor (amylin 3(a) receptor: human calcitonin receptor + RAMP-3) (Homo sapiens, UniProt O60896+P30988); test: Assay (II)a functional CRE-luciferase assay, human amylin receptor; type: cell-based; conditions: Table 2; BHK amylin 3(a)-receptor/CRE-luc cells
T1 construct: expressed in transfected cells; host or cells: BHK570
T1 sequence (P30988 25-474): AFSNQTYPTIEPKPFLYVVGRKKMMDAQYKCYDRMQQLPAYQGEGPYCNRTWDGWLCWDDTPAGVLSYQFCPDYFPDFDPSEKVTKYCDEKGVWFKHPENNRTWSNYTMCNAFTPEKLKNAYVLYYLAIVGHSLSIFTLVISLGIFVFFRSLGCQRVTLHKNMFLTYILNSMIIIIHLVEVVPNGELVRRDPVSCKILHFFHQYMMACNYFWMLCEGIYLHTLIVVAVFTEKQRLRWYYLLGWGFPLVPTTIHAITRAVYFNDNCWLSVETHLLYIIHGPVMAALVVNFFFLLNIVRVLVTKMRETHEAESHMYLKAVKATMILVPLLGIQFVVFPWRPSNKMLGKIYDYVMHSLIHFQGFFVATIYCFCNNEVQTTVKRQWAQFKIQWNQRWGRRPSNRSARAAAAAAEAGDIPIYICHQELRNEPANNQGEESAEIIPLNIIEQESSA
T1 sequence (O60896 24-148 partner): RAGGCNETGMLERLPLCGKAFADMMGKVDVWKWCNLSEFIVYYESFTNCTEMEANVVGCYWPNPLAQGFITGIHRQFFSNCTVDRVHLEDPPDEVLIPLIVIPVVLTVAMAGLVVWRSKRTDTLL

[3] = molecular target: T2, human calcitonin receptor (Homo sapiens, UniProt P30988); test: Assay (II)a functional CRE-luciferase assay, human calcitonin receptor; type: cell-based; conditions: Table 7; human calcitonin (CTa) receptor
T2 construct: expressed in transfected cells; host or cells: BHK570
T2 sequence (P30988 25-474): T1 sequence (P30988 25-474)

[4] = bistrispropane buffer, pH 6, pH 6.0, read-out: Solubility pH 6.0
[5] = bistrispropane buffer, pH 6.5, pH 6.5, read-out: Solubility pH 6.5
[6] = bistrispropane buffer, pH 7, pH 7.0, 18 hours at room temperature, Table 3, read-out: Solubility pH 7.0
[7] = bistrispropane buffer, pH 7, pH 7.0, read-out: Solubility pH 7.0
[8] = bistrispropane buffer, pH 7.5, pH 7.5, read-out: Solubility pH 7.5
[9] = bistrispropane buffer, pH 8, pH 8.0, read-out: Solubility pH 8.0
[10] = glycylglycine buffer, pH 3, pH 3.0, read-out: Solubility pH 3.0
[11] = glycylglycine buffer, pH 4, pH 4.0, 18 hours at room temperature, Table 2, read-out: Solubility pH 4.0
[12] = glycylglycine buffer, pH 4, pH 4.0, read-out: Solubility pH 4.0
[13] = glycylglycine buffer, pH 5, pH 5.0, read-out: Solubility pH 5.0

| solubility at 18 h [1, 4] | solubility at 18 h [1, 5] | solubility at 18 h [1, 6] | solubility at 18 h ([1]; bistrispropane buffer, pH 7, pH 7.0, Table 8, read-out: Solubility pH 7.0) | solubility at 18 h ([1]; bistrispropane buffer, pH 7, pH 7.0, Table 9, read-out: Solubility pH 7.0) | solubility at 18 h [1, 7] | solubility at 18 h ([1]; bistrispropane buffer, pH 7.5, pH 7.5, Table 9, read-out: Solubility pH 7.5) | solubility at 18 h [1, 8] | solubility at 18 h [1, 9] | solubility at 18 h [1, 10] | solubility at 18 h [1, 11] | solubility at 18 h [1, 12] | solubility at 18 h [1, 13] | EC50 [2] | EC50 [3] | Structure (SMILES) |
| --- | --- | --- | --- | --- | --- | --- | --- | --- | --- | --- | --- | --- | --- | --- | --- |
| > 200 µM | > 200 µM | > 200 µM | > 200 µM | > 200 µM | > 200 µM | > 200 µM | > 200 µM | > 200 µM | > 200 µM | > 200 µM | > 200 µM | > 200 µM | 0.0325 nM | 0.0475 nM | CC[C@H](C)[C@H](NC(=O)[C@@H]1CCCN1C(=O)CNC(=O)[C@H](Cc1ccccc1)NC(=O)[C@H](CC(N)=O)NC(=O)[C@H](CC(N)=O)NC(=O)[C@H](CO)NC(=O)[C@H](CO)NC(=O)[C@H](Cc1c[nH]cn1)NC(=O)[C@H](CCCNC(=N)N)NC(=O)[C@H](CC(C)C)NC(=O)[C@H](Cc1ccccc1)NC(=O)[C@H](CCC(=O)O)NC(=O)[C@H](C)NC(=O)[C@H](CC(C)C)NC(=O)[C@H](CCCNC(=N)N)NC(=O)[C@H](CCC(N)=O)NC(=O)[C@@H](NC(=O)[C@H](C)NC(=O)[C@@H]1CSSC[C@H](NC(=O)[C@H](Cc2c[nH]cn2)NC(=O)CC[C@H](NC(=O)CCCCCCCCCCCCCCCCCCC(=O)O)C(=O)O)C(=O)N[C@@H](CC(N)=O)C(=O)N[C@@H]([C@@H](C)O)C(=O)N[C@@H](C)C(=O)N[C@@H]([C@@H](C)O)C(=O)N1)[C@@H](C)O)C(=O)N[C@@H](CC(C)C)C(=O)N1CCC[C@H]1C(=O)N1CCC[C@H]1C(=O)N[C@H](C(=O)N[C@@H](CC(N)=O)C(=O)N[C@H](C(=O)NCC(=O)N[C@@H](CO)C(=O)N[C@@H](CC(N)=O)C(=O)N[C@H](C(=O)N1CCC[C@H]1C(N)=O)[C@@H](C)O)C(C)C)[C@@H](C)O [Example 90, N-alpha-[(S)-4-Carboxy-4-(19-carboxynonadecanoylamino)butyryl]-[His1,Glu14,Arg17,Pro37]-pramlintide] ({C20 diacid-γGlu}-HCNTATCATQRLAEFLRHSSNNFGPILPPTNVGSNTP-NH2; disulfide 2-7 (inferred); C-terminus assumed) |
| > 200 µM | 177 µM (≈ 785 µg/mL) | > 200 µM | – | – | > 200 µM | – | > 200 µM | > 200 µM | > 200 µM | > 200 µM | > 200 µM | > 200 µM | 0.0425 nM | 0.112 nM | CC[C@H](C)[C@H](NC(=O)[C@@H]1CCCN1C(=O)CNC(=O)[C@H](Cc1ccccc1)NC(=O)[C@H](CC(N)=O)NC(=O)[C@H](CC(N)=O)NC(=O)[C@H](CO)NC(=O)[C@H](CO)NC(=O)[C@H](Cc1c[nH]cn1)NC(=O)[C@H](Cc1c[nH]cn1)NC(=O)[C@H](CC(C)C)NC(=O)[C@H](Cc1ccccc1)NC(=O)[C@H](CCC(=O)O)NC(=O)[C@H](C)NC(=O)[C@H](CC(C)C)NC(=O)[C@H](CCCNC(=N)N)NC(=O)[C@H](CCC(N)=O)NC(=O)[C@@H](NC(=O)[C@H](C)NC(=O)[C@@H]1CSSC[C@H](NC(=O)[C@H](Cc2c[nH]cn2)NC(=O)CC[C@H](NC(=O)CCCCCCCCCCCCCCCCC(=O)O)C(=O)O)C(=O)N[C@@H](CC(N)=O)C(=O)N[C@@H]([C@@H](C)O)C(=O)N[C@@H](C)C(=O)N[C@@H]([C@@H](C)O)C(=O)N1)[C@@H](C)O)C(=O)N[C@@H](CC(C)C)C(=O)N1CCC[C@H]1C(=O)N1CCC[C@H]1C(=O)N[C@H](C(=O)N[C@@H](CC(N)=O)C(=O)N[C@H](C(=O)NCC(=O)N[C@@H](CO)C(=O)N[C@@H](CC(N)=O)C(=O)N[C@H](C(=O)N[C@@H](Cc1ccc(O)cc1)C(N)=O)[C@@H](C)O)C(C)C)[C@@H](C)O [Example 48, N-alpha-[(S)-4-Carboxy-4-(17-carboxyheptadecanoylamino)butyryl]-[His1,Glu14,His17]-pramlintide] ({C18 diacid-γGlu}-HCNTATCATQRLAEFLHHSSNNFGPILPPTNVGSNTY-NH2; disulfide 2-7 (inferred)) |
| 45 µM (≈ 202 µg/mL) | 1 µM (≈ 4.49 µg/mL) | – | – | – | 4 µM (≈ 18 µg/mL) | – | 104 µM (≈ 467 µg/mL) | > 200 µM | > 200 µM | > 200 µM | > 200 µM | > 200 µM | 0.121 nM | 0.0855 nM | CC[C@H](C)[C@H](NC(=O)[C@@H]1CCCN1C(=O)CNC(=O)[C@H](Cc1ccccc1)NC(=O)[C@H](CC(N)=O)NC(=O)[C@H](CC(N)=O)NC(=O)[C@H](CO)NC(=O)[C@H](CO)NC(=O)[C@H](Cc1c[nH]cn1)NC(=O)[C@H](Cc1c[nH]cn1)NC(=O)[C@H](CC(C)C)NC(=O)[C@H](Cc1ccccc1)NC(=O)[C@H](CCC(=O)O)NC(=O)[C@H](C)NC(=O)[C@H](CC(C)C)NC(=O)[C@H](CCCNC(=N)N)NC(=O)[C@H](CCC(N)=O)NC(=O)[C@@H](NC(=O)[C@H](C)NC(=O)[C@@H]1CSSC[C@H](NC(=O)[C@H](Cc2c[nH]cn2)NC(=O)CC[C@H](NC(=O)CCCCCCCCCCCCCCCCCCC(=O)O)C(=O)O)C(=O)N[C@@H](CC(N)=O)C(=O)N[C@@H]([C@@H](C)O)C(=O)N[C@@H](C)C(=O)N[C@@H]([C@@H](C)O)C(=O)N1)[C@@H](C)O)C(=O)N[C@@H](CC(C)C)C(=O)N1CCC[C@H]1C(=O)N1CCC[C@H]1C(=O)N[C@H](C(=O)N[C@@H](CC(N)=O)C(=O)N[C@H](C(=O)NCC(=O)N[C@@H](CO)C(=O)N[C@@H](Cc1c[nH]cn1)C(=O)N[C@H](C(=O)N[C@@H](Cc1ccc(O)cc1)C(N)=O)[C@@H](C)O)C(C)C)[C@@H](C)O [Example 76, N-alpha-[(S)-4-Carboxy-4-(19-carboxynonadecanoylamino)butyryl]-[His1,Glu14,His17,His35]-pramlintide] ({C20 diacid-γGlu}-HCNTATCATQRLAEFLHHSSNNFGPILPPTNVGSHTY-NH2; disulfide 2-7 (inferred); C-terminus assumed) |
| > 200 µM | 155 µM (≈ 716 µg/mL) | – | – | – | 46 µM (≈ 212 µg/mL) | – | 77 µM (≈ 355 µg/mL) | 144 µM (≈ 665 µg/mL) | > 200 µM | > 200 µM | > 200 µM | > 200 µM | 0.182 nM | 0.21 nM | CC[C@H](C)[C@H](NC(=O)[C@@H]1CCCN1C(=O)CNC(=O)[C@H](Cc1ccccc1)NC(=O)[C@H](CC(N)=O)NC(=O)[C@H](CC(N)=O)NC(=O)[C@H](CO)NC(=O)[C@H](CO)NC(=O)[C@H](Cc1c[nH]cn1)NC(=O)[C@H](Cc1c[nH]cn1)NC(=O)[C@H](CC(C)C)NC(=O)[C@H](Cc1ccccc1)NC(=O)[C@H](CCC(=O)O)NC(=O)[C@H](C)NC(=O)[C@H](CC(C)C)NC(=O)[C@H](CCCNC(=N)N)NC(=O)[C@H](CCC(N)=O)NC(=O)[C@@H](NC(=O)[C@H](C)NC(=O)[C@@H]1CSSC[C@H](NC(=O)[C@H](CCCCN)NC(=O)[C@H](Cc2c[nH]cn2)NC(=O)CC[C@H](NC(=O)CCCCCCCCCCCCCCCCCCC(=O)O)C(=O)O)C(=O)N[C@@H](CC(N)=O)C(=O)N[C@@H]([C@@H](C)O)C(=O)N[C@@H](C)C(=O)N[C@@H]([C@@H](C)O)C(=O)N1)[C@@H](C)O)C(=O)N[C@@H](CC(C)C)C(=O)N1CCC[C@H]1C(=O)N1CCC[C@H]1C(=O)N[C@H](C(=O)N[C@@H](CC(N)=O)C(=O)N[C@H](C(=O)NCC(=O)N[C@@H](CO)C(=O)N[C@@H](Cc1c[nH]cn1)C(=O)N[C@H](C(=O)N[C@@H](Cc1ccc(O)cc1)C(N)=O)[C@@H](C)O)C(C)C)[C@@H](C)O [Example 66, N-alpha-[(S)-4-Carboxy-4-(19-carboxynonadecanoylamino)butyryl]-His-[Glu14,His17,His35]-pramlintide] ({C20 diacid-γGlu}-HKCNTATCATQRLAEFLHHSSNNFGPILPPTNVGSHTY-NH2; disulfide 3-8 (inferred); C-terminus assumed) |
